Experiments:
central apneas = conditions: rats with frequent central apneas during all sleep stages; cited from earlier work
[1] = system: sleep apnea (OSAS, central apnea); conditions: cited from earlier work; for effect in individuals with obstructive sleep apnea (OSAS) / effect in individuals with central apnea: patients; for effect in individuals with central apnea: primarily central apneas
[2] = system: CCK-induced depolarization of nodose ganglion neurons; conditions: isolated nodose ganglion cells; cited from earlier work
[3] = system: spontaneous sleep apnea in the rat; test: Spontaneous sleep apnea in the rat: plethysmograph, EEG and EMG recording after i.p. injection; type: in vivo, Sprague-Dawley rats; conditions: for efficacy against sleep apnea (rate of apneas per hour of NREM and REM sleep): 6 hours polygraphic recording, i.p.; for SP apnea index, % of placebo value: spontaneous (SP) apneas, p<0.03
Description: Adult, male Sprague-Dawley rats (Sasco-King, Wilmington, Mass.), usually 8 per test group with an average weight of 300 grams, are maintained on a 12-hour light/12-hour dark cycle for one week. The animals are housed in individual cages and given ad libitum access to food and water. Following the one week of acclimatization, animals are subjected to the following surgical procedures.
Acclimatized animals are anesthetized using a mixture of ketamine (80 mg/kg) and xylazine (5 mg/kg) at a volume of 1 ml/kg body weight for the implantation of cortical electrodes for electroencephalogram (EEG) recording and neck muscle electrodes for electromyogram (EMG) recording. The surface of the skull is exposed surgically and cleaned with a 20% solution of hydrogen peroxide followed by a solution of 95% isopropyl alcohol. A dental preparation of sodium fluoride (FLURA-GEL; Saslow Dental, Mt. Prospect, Ill.) is subsequently applied to harden the skull above the parietal cortex and allowed to remain in place for 5 minutes. The fluoride mixture is then removed from the skull above the parietal cortex. The EEG electrodes consisting of four stainless steel machine screws, having leads attached thereto, are threaded into the skull to rest on the dura over the parietal cortex. A thin layer of JUSTI resin cement (Saslow Dental, Mt. Prospect, Ill.) is applied to cover the screw heads (of screws implanted in the skull) and surrounding skull to further promote the adhesion of the implant. EMG electrodes consisting of two ball-shaped wires are inserted into the bilateral neck musculature. All leads (i.e., EEG and EMG leads) are soldered to a miniature connector (39F1401; Newark Electronics, Schaumburg, Ill.). The entire assembly is subsequently fixed to the skull with dental cement.
Physiological parameters from each animal prepared as described herein are recorded on two to five occasions in random order, with recordings for an individual animal separated by at least 3 days. Fifteen minutes prior to each recording an animal receives a systemic injection (1 mL/kg intraperitoneal bolus) of either saline (control) or an active dose of a drug treatment.
Respiration is recorded by placing each animal, unrestrained, inside a single chamber plethysmograph (PLYUNIR/U; Buxco Electronics, Sharon, Conn.; dimension 6 inches×10 inches×6 inches) ventilated with a bias flow of fresh room air at a rate of 2 Liters/minute. A cable plugged onto the animal's connector and passed through a sealed port is used to collect the bioelectrical activity from the head implant.
Sleep and waking states are assessed using conventional software (Benington, et al. (1994) Sleep 17:28-36) to analyze the biparietal EEG and nuchal EMG signals on 10-second epochs. The software discriminates wakefulness (W) as a high frequency low amplitude EEG with a concomitant high EMG tone, NREM sleep by increased spindle and […] activity together with decreased EMG tone, and REM sleep by a […] activity and an absence of EMG tone. Sleep efficiency is measured as the percentage of total recorded epochs staged as NREM or REM sleep.
An accepted physiological animal model of spontaneous sleep apnea in the rat (see Radulovacki & Carley (2002) In: Sleep-Related Breathing Disorder: Experimental Models and Therapeutic Potential (Carley & Radulovacki, eds.) Marcel Dekker: New York, pp. 3-16) is used to assess the effects of test drugs. More specifically, sleep apneas, defined as cessation of respiratory effort for at least 2.5 seconds, are scored for each recording session and associated with the stage of sleep in which they occur (i.e., NREM or REM sleep). The duration requirement of 2.5 seconds represents at least two “missed” breaths, which is therefore analogous to a 10 second apnea duration requirement in humans, which also reflects two to three missed breaths. […]

sleep apnea = conditions: cited from earlier work
[4] = individuals with obstructive sleep apnea

For `Cc1nccn1CC1CCc2c(c3ccccc3n2C)C1=O` (centres unmarked) [ondansetron], which apnea frequency (central apneas) is on record?
The apnea frequency was “reduce apnea frequency”.

What about the “effect in individuals with obstructive sleep apnea (OSAS)” value (“effect in individuals … (OSAS)” for short) [1] of the same molecule?
The value was “failed to demonstrate any effect”.

What does the source list for `CN1C(=O)[C@@H](NC(=O)c2cc3ccccc3[nH]2)N=C(c2ccccc2)c2ccccc21` [devazepide]?
potency in blocking CCK-induced depolarization of nodose ganglion neurons [2]: highly potent; efficacy against sleep apnea (rate of apneas per hour of NREM and REM sleep) ([3]; rats): dose-dependent efficacy

What does the source list for `CC(=O)Nc1nnc(S(N)(=O)=O)s1` [acetazolamide]?
effect in individuals with obstructive sleep apnea (OSAS) [1]: increase in obstructive apneas; effect in individuals with central apnea [1]: variable improvement

Which “efficacy against sleep apnea (rate of apneas per hour of NREM and REM sleep)” value ([3]; rats) does the source give for `CCCCCN(CCCCC)C(=O)C(CCC(=O)O)NC(=O)c1ccc(Cl)c(Cl)c1` (centres unmarked) [lorglumide] here?
Its value is “dose-dependent efficacy”.

Which “potency in blocking CCK-induced depolarization of nodose ganglion neurons” value [2] does the source give for `Cc1cccc(NC(=O)N[C@@H]2N=C(c3ccccc3)c3ccccc3N(C)C2=O)c1` [L-365,260] here?
Its value is “less potent”.

And the “efficacy against sleep apnea (rate of apneas per hour of NREM and REM sleep)” value ([3]; rats)?
Its value is “dose-dependent efficacy”.

For `CNCCCC1c2ccccc2C=Cc2ccccc21` [protriptyline], which “effect in individuals … (OSAS)” value [1] is on record?
The value was “variable results”.

And the side effects ([1]; several small trials in individuals with OSAS)?
Its side effects is “frequent and significant side effects”.

For `CCCCCc1cc(O)c2c(c1)OC(C)(C)[C@@H]1CCC(C)=C[C@@H]21` [Δ9-tetrahydrocannibinol], which “reduction of apnea in an animal model of sleep apnea” value (sleep apnea) is on record?
The value was “reduce sleep apneas”.

For `O=C1CC2(CCCC2)CC(=O)N1CCCCN1CCN(c2ncccn2)CC1` [Buspirone], which post-surgical apneustic breathing ([1]; one child) is on record?
The post-surgical apneustic breathing was “eliminate post-surgical apneustic breathing”.

What about the “patients with reduced apnea index” value ([1]; patients with sleep apnea syndrome) of the same molecule?
Its value is 4 of 5.

For `CCN1CC(CCN2CCOCC2)C(c2ccccc2)(c2ccccc2)C1=O` (centres unmarked) [doxapram], which “average arterial oxygen saturation” value [1, 4] is on record?
Its value is “does not alter”.

What about the length of apneas [1, 4] of the same molecule?
Its length of apneas is “decreasing the length of apneas”.

Which “SP apnea index, % of placebo value” ([3]; 0.5 mg/kg i.p. in DMSO, rats) does the source give for `Cc1cc(C)c(NC(=O)C[C@H](CC(=O)O)c2cccc3ccccc23)c(C(=O)N2CCC3(CCCC3)CC2)c1` [CR2945] here?
The value was 42%.

What about the “SP apnea index, % of placebo value” ([3]; 5.0 mg/kg i.p. in DMSO, rats) of the same molecule?
Its value is 31%.

What about the “REM SP apnea index” value ([3]; all four doses 0.005, 0.05, 0.5, 5.0 mg/kg i.p., p<0.04 for each) of the same molecule?
The value was “significantly reduced”.

What about the “frequency of spontaneous central apnea expression” value ([3]; all sleep stages, rats, systemic injection) of the same molecule?
Its value is “significantly reduced”.

And the apnea duration ([3]; any dose 0.005-5.0 mg/kg i.p., p=0.7)?
Its apnea duration is “not affected”.

With `C=CCN1CC[C@]23c4c5ccc(O)c4O[C@H]2C(=O)CC[C@@]3(O)[C@H]1C5` [naloxone] as the molecule, how does the “effect in individuals … (OSAS)” value [1] read?
The value was “only slightly helpful”.

With `Cn1c(=O)c2[nH]cnc2n(C)c1=O` [theophylline] as the molecule, how does the “effect in individuals … (OSAS)” value [1] read?
The value was “of no use”.

And the “effect in individuals with central apnea” value [1]?
Its value is “may benefit”.

With `COc1cc(N)c(Cl)cc1C(=O)N[C@H]1CN2CCC1CC2` [R-zacopride] as the molecule, how does the apnea frequency (central apneas) read?
Its apnea frequency is “reduce apnea frequency”.

Which “reduction of apnea in an animal model of sleep apnea” value (sleep apnea) does the source give for `Nc1ncnc2c1ncn2[C@@H]1O[C@H](CO)[C@@H](O)[C@H]1O` [adenosine] here?
The value was “somewhat effective in reducing apnea”.

Which apnea frequency (central apneas) does the source give for `CN1CCN2c3ncccc3Cc3ccccc3C2C1` (centres unmarked) [mirtazapine] here?
The apnea frequency was “reduce apnea frequency”.

And the “reduction of apnea frequency” value ([1]; one study of OSAS patients)?
Its value is 50%.

For medroxyprogesterone, which “effect in individuals … (OSAS)” value [1] is on record?
The value was “no consistent benefit”.

Source: patent publication US8053413B2, “Methods for treating sleep disorders by cholecystokinin (CCK) receptor B antagonists” (The Board of Trustees of the University of Illinois, priority 2005, dated 2011)
